Where two headings read alike, the source gives them in different places.
Experiments:
[1] = test system: HCC1954 breast ductal carcinoma; test: Cell viability (Cell Titer Glo 2.0) in HCC1954, 120 hours; assay type: cell-based
Experimental: (§1) HCC1954 breast ductal carcinoma and T47D cells (ATCC, Manassas, VA, USA) were seeded into 384-well white-walled culture plates and allowed to adhere for 2-4 hours. Cells were then treated at least in duplicate by addition of 5-fold serially diluted test articles prepared at 2× final concentration and incubated at 37° C. for 120 hours. Cell viability following treatment was determined by Cell Titer Glo 2.0 Assay (Promega, Madison, WI, USA) and normalized to non-treated controls. Dose-response relationships were analyzed using GraphPad Prism (La Jolla, CA, USA), and IC50 values were derived from non-linear regression analyses using a 4-parameter logistic equation.

[2] = test system: T47D cells; test: Cell viability (Cell Titer Glo 2.0) in T47D cells, 120 hours; assay type: cell-based
Experimental: as §1

[3] = Homo sapiens, HCC1954, 120 h, read-out: IC50 (nM), in vitro potency in HCC1954
[4] = N-methylated analogs 1,2-/1,3-/1,4-NH2, relative to the 1,3-NH2 analog (=1)
[5] = NCH3-amide compared to its NH-amide analog (=1)
[6] = Trastuzumab conjugate of the numbered linker-payload, HCC1954, read-out: ADC (Trastuzumab) IC50 in HCC1954 assay

Row | SMILES | IC50 [1, 3] | IC50 [1, 6] | also measured
1 | CC[C@H](C)[C@@H]([C@@H](CC(=O)N1CCC[C@H]1[C@H](OC)[C@@H](C)C(=O)N(C)CCc1ccccc1N)OC)N(C)C(=O)[C@@H](NC(=O)[C@H](C(C)C)N(C)C)C(C)C [Compound 14, (S)-N-((3R,4S,5S)-1-((S)-2-((1R,2R)-3-((2-aminophenethyl)(methyl)amino)-1-methoxy-2-methyl-3-oxopropyl)pyrrolidin-1-yl)-3-methoxy-5-methyl-1-oxoheptan-4-yl)-2-((S)-2-(dimethylamino)-3-methylbutanamido)-N,3-dimethylbutanamide] | < 5 nM | – | potency compared to the 1,4-NH2 configuration of the P5 moiety in 19 and 26 ([1]; HCC1954 and T47D assays): more potent; IC50 (fold difference) HCC1954 [1, 4]: 0.8 fold difference; IC50 (fold difference) HCC1954 [1, 5]: 2.0 fold difference; IC50 (fold difference) T47D [2, 4]: 1.3 fold difference; IC50 (fold difference) T47D [2, 5]: 1.8 fold difference
2 | CC[C@H](C)[C@@H]([C@@H](CC(=O)N1CCC[C@H]1[C@H](OC)[C@@H](C)C(=O)N(C)CCc1cccc(N)c1)OC)N(C)C(=O)[C@@H](NC(=O)C1(N(C)C)CCC1)C(C)C [Compound 12, N-((S)-1-(((3R,4S,5S)-1-((S)-2-((IR,2R)-3-((3-aminophenethyl)(methyl)amino)-1-methoxy-2-methyl-3-oxopropyl)pyrrolidin-1-yl)-3-methoxy-5-methyl-1-oxoheptan-4-yl)(methyl)amino)-3-methyl-1-oxobutan-2-yl)-1-(dimethylamino)cyclobutanecarboxamide] | < 5 nM | – | –
3 | CC[C@H](C)[C@@H]([C@@H](CC(=O)N1CCC[C@H]1[C@H](OC)[C@@H](C)C(=O)N(C)CCc1cccc(NC(=O)[C@H](C)NC(=O)[C@H](C)NC(=O)CN2C(=O)C=CC2=O)c1)OC)N(C)C(=O)[C@@H](NC(=O)[C@H]1CCCN1C)C(C)C [Compound 37, (R)-N-((S)-1-(((3R,4S,5S)-1-((S)-2-((IR,2R)-3-((3-((S)-2-((S)-2-(2-(2,5-dioxo-2,5-dihydro-1H-pyrrol-1-yl)acetamido)propanamido)propanamido)phenethyl)(methyl)amino)-1-methoxy-2-methyl-3-oxopropyl)pyrrolidin-1-yl)-3-methoxy-5-methyl-1-oxoheptan-4-yl)(methyl)amino)-3-methyl-1-oxobutan-2-yl)-1-methylpyrrolidine-2-carboxamide 2,2,2-trifluoroacetate] | – | < 5 nM | –
4 | CC[C@H](C)[C@@H]([C@@H](CC(=O)N1CCC[C@H]1[C@H](OC)[C@@H](C)C(=O)N(C)CCc1cccc(NC(=O)[C@H](C)NC(=O)[C@H](C)NC(=O)CN2C(=O)C=CC2=O)c1)OC)N(C)C(=O)[C@@H](NC(=O)[C@H](C(C)C)N(C)C)C(C)C [Compound 28, (S)-2-((S)-2-(dimethylamino)-3-methylbutanamido)-N-((3R,4S,5S)-1-((S)-2-((1R,2R)-3-((3-((S)-2-((S)-2-(2-(2,5-dioxo-2,5-dihydro-1H-pyrrol-1-yl)acetamido)propanamido)propanamido)phenethyl)(methyl)amino)-1-methoxy-2-methyl-3-oxopropyl)pyrrolidin-1-yl)-3-methoxy-5-methyl-1-oxoheptan-4-yl)-N,3-dimethylbutanamide 2,2,2-trifluoroacetate] | – | < 5 nM | –
5 | CC[C@H](C)[C@@H]([C@@H](CC(=O)N1CCC[C@H]1[C@H](OC)[C@@H](C)C(=O)N(C)CCc1cccc(NC(=O)[C@H](C)NC(=O)[C@H](C)NC(=O)CN2C(=O)C=CC2=O)c1)OC)N(C)C(=O)[C@@H](NC(=O)C1(N(C)C)CCC1)C(C)C [Compound 33, 1-(dimethylamino)-N-((S)-1-(((3R,4S,5S)-1-((S)-2-((1R,2R)-3-((3-((S)-2-((S)-2-(2-(2,5-dioxo-2,5-dihydro-1H-pyrrol-1-yl)acetamido)propanamido)propanamido)phenethyl)(methyl)amino)-1-methoxy-2-methyl-3-oxopropyl)pyrrolidin-1-yl)-3-methoxy-5-methyl-1-oxoheptan-4-yl)(methyl)amino)-3-methyl-1-oxobutan-2-yl)cyclobutanecarboxamide 2,2,2-trifluoroacetate] | – | > 10 nM | –
6 | CC[C@H](C)[C@@H]([C@@H](CC(=O)N1CCC[C@H]1[C@H](OC)[C@@H](C)C(=O)N(C)CCc1cccc(N)c1)OC)N(C)C(=O)[C@@H](NC(=O)[C@@H]1CCN(C)C1)C(C)C [Compound 10, (R)-N-((S)-1-(((3R,4S,5S)-1-((S)-2-((IR,2R)-3-((3-aminophenethyl)(methyl)amino)-1-methoxy-2-methyl-3-oxopropyl)pyrrolidin-1-yl)-3-methoxy-5-methyl-1-oxoheptan-4-yl)(methyl)amino)-3-methyl-1-oxobutan-2-yl)-1-methylpyrrolidine-3-carboxamide] | > 10 nM | – | –
7 | CC[C@H](C)[C@@H]([C@@H](CC(=O)N1CCC[C@H]1[C@H](OC)[C@@H](C)C(=O)N(C)CCc1cccc(N)c1)OC)N(C)C(=O)[C@@H](NC(=O)[C@H]1CCCCN1C)C(C)C [Compound 11, (R)-N-((S)-1-(((3R,4S,5S)-1-((S)-2-((1R,2R)-3-((3-aminophenethyl)(methyl)amino)-1-methoxy-2-methyl-3-oxopropyl)pyrrolidin-1-yl)-3-methoxy-5-methyl-1-oxoheptan-4-yl)(methyl)amino)-3-methyl-1-oxobutan-2-yl)-1-methylpiperidine-2-carboxamide] | < 5 nM | – | –
8 | CC[C@H](C)[C@@H]([C@@H](CC(=O)N1CCC[C@H]1[C@H](OC)[C@@H](C)C(=O)N(C)CCc1cccc(N)c1)OC)N(C)C(=O)[C@@H](NC(=O)CN(C)C)C(C)C [Compound 4, (S)-N-((3R,4S,5S)-1-((S)-2-((1R,2R)-3-((3-aminophenethyl)(methyl)amino)-1-methoxy-2-methyl-3-oxopropyl)pyrrolidin-1-yl)-3-methoxy-5-methyl-1-oxoheptan-4-yl)-2-(2-(dimethylamino)acetamido)-N,3-dimethylbutanamide] | < 5 nM | – | –
9 | CC[C@H](C)[C@@H]([C@@H](CC(=O)N1CCC[C@H]1[C@H](OC)[C@@H](C)C(=O)N(C)CCc1cccc(N)c1)OC)N(C)C(=O)[C@@H](NC(=O)C(C)(C)N(C)C)C(C)C [Compound 7, (S)-N-((3R,4S,5S)-1-((S)-2-((IR,2R)-3-((3-aminophenethyl)(methyl)amino)-1-methoxy-2-methyl-3-oxopropyl)pyrrolidin-1-yl)-3-methoxy-5-methyl-1-oxoheptan-4-yl)-2-(2-(dimethylamino)-2-methylpropanamido)-N,3-dimethylbutanamide] | < 5 nM | – | –
10 | CC[C@H](C)[C@@H]([C@@H](CC(=O)N1CCC[C@H]1[C@H](OC)[C@@H](C)C(=O)N(C)CCc1cccc(NC(=O)[C@H](C)NC(=O)[C@H](C)NC(=O)CN2C(=O)C=CC2=O)c1)OC)N(C)C(=O)[C@@H](NC(=O)[C@H](C)N(C)C)C(C)C [Compound 29, (S)-2-((S)-2-(dimethylamino)propanamido)-N-((3R,4S,5S)-1-((S)-2-((1R,2R)-3-((3-((S)-2-((S)-2-(2-(2,5-dioxo-2,5-dihydro-1H-pyrrol-1-yl)acetamido)propanamido)propanamido)phenethyl)(methyl)amino)-1-methoxy-2-methyl-3-oxopropyl)pyrrolidin-1-yl)-3-methoxy-5-methyl-1-oxoheptan-4-yl)-N,3-dimethylbutanamide 2,2,2-trifluoroacetate] | – | < 5 nM | –
11 | CC[C@H](C)[C@@H]([C@@H](CC(=O)N1CCC[C@H]1[C@H](OC)[C@@H](C)C(=O)N(C)CCc1cccc(N)c1)OC)N(C)C(=O)[C@@H](NC(=O)[C@@H](C)N(C)C)C(C)C [Compound 3, (S)-N-((3R,4S,5S)-1-((S)-2-((IR,2R)-3-((3-aminophenethyl)(methyl)amino)-1-methoxy-2-methyl-3-oxopropyl)pyrrolidin-1-yl)-3-methoxy-5-methyl-1-oxoheptan-4-yl)-2-((R)-2-(dimethylamino)propanamido)-N,3-dimethylbutanamide] | < 5 nM | – | –
12 | CC[C@H](C)[C@@H]([C@@H](CC(=O)N1CCC[C@H]1[C@H](OC)[C@@H](C)C(=O)N(C)CCc1ccccc1N)OC)N(C)C(=O)[C@@H](NC(=O)CN(C)C)C(C)C [Compound 18, (S)-N-((3R,4S,5S)-1-((S)-2-((1R,2R)-3-((2-aminophenethyl)(methyl)amino)-1-methoxy-2-methyl-3-oxopropyl)pyrrolidin-1-yl)-3-methoxy-5-methyl-1-oxoheptan-4-yl)-2-(2-(dimethylamino)acetamido)-N,3-dimethylbutanamide] | 5 to 10 nM | – | –
13 | CC[C@H](C)[C@@H]([C@@H](CC(=O)N1CCC[C@H]1[C@H](OC)[C@@H](C)C(=O)N(C)CCc1cccc(NC(=O)[C@H](C)NC(=O)[C@H](C)NC(=O)CN2C(=O)C=CC2=O)c1)OC)N(C)C(=O)[C@@H](NC(=O)[C@@H](C)N(C)C)C(C)C [Compound 30, (S)-2-((R)-2-(dimethylamino)propanamido)-N-((3R,4S,5S)-1-((S)-2-((1R,2R)-3-((3-((S)-2-((S)-2-(2-(2,5-dioxo-2,5-dihydro-1H-pyrrol-1-yl)acetamido)propanamido)propanamido)phenethyl)(methyl)amino)-1-methoxy-2-methyl-3-oxopropyl)pyrrolidin-1-yl)-3-methoxy-5-methyl-1-oxoheptan-4-yl)-N,3-dimethylbutanamide 2,2,2-trifluoroacetate] | – | < 5 nM | –
14 | CC[C@H](C)[C@@H]([C@@H](CC(=O)N1CCC[C@H]1[C@H](OC)[C@@H](C)C(=O)N(C)CCc1cccc(N)c1)OC)N(C)C(=O)[C@@H](NC(=O)[C@H]1CCCN1C)C(C)C [Compound 9, (R)-N-((S)-1-(((3R,4S,5S)-1-((S)-2-((1R,2R)-3-((3-aminophenethyl)(methyl)amino)-1-methoxy-2-methyl-3-oxopropyl)pyrrolidin-1-yl)-3-methoxy-5-methyl-1-oxoheptan-4-yl)(methyl)amino)-3-methyl-1-oxobutan-2-yl)-1-methylpyrrolidine-2-carboxamide] | < 5 nM | – | –

Reference: patent publication US20260131016A1, “NOVEL AURISTATIN ANALOGS AND IMMUNOCONJUGATES THEREOF” (ADCENTRX THERAPEUTICS INC., priority 2021, published 2026)
